First: COc1cc(-c2nc(NC(=O)c3c(C)c4cc(C)ccc4n3CC(=O)O)sc2CCC2CCCCC2)c(OC)cc1Cl
Second: COC(=O)c1ccc2c(ccn2Cc2cccc(NC(=O)OC3CCCC3)c2)c1
The melting point of the first is higher: 151 to 160 °C for the first, 131 to 133 °C for the second.

Compared with `O=[N+]([O-])c1ccc(C=C/C=C/c2ccc(Cl)c(Cl)c2)cc1`, `O=C(Oc1ccc(Cl)cc1)C1CCCc2ccc([N+](=O)[O-])cc21` (stereo unspecified) is lower in melting point: 125 to 135 °C for the first, 108 to 109 °C for the second.

First: CCN(CC)C(=O)n1ccc(S(=O)(=O)c2c(F)cccc2F)n1
Second: COC(=O)CC(=O)Nc1cccc(COc2ccc(C(C)=O)c(F)c2)c1
The melting point of the first is lower: 83 to 83.5 °C for the first, 102 to 104 °C for the second.

First: Oc1ccc2c(c1)COc1c-2cc2ccc(O)cc2c1-c1ccccc1F
Second: CCCCc1oc2ccccc2c1C(O)c1ccc(-c2ccc(O)cc2)cc1 (stereo unspecified)
The melting point of the first is higher: 240 to 242 °C for the first, 47 to 49 °C for the second.

Compared with `O=c1c2ccccc2n(Cc2ccccc2)n2cccc12`, `Cc1cc2c(=O)[nH][nH]c(=O)c2n1Cc1ccccc1` is higher in melting point: 146 to 148 °C for the first, 322 to 324 °C for the second.

First: CC1CC(=O)N(CCCCN2CCN(c3cncc(Cl)n3)CC2)S(=O)(=O)N1 (stereo unspecified)
Second: CC(=O)N[C@H]1CC[C@H](CCN2CCN(c3nc(C)cc4c3CCO4)CC2)CC1
The melting point of the first is lower: 107 to 109 °C for the first, 218 °C for the second.

First: O=C(Nc1ccccc1)OCC1(COC(=O)Nc2ccccc2)CS(=O)c2ccccc2C1=O (stereo unspecified)
Second: O=C(Nc1ccc(CN2C(=O)C3CCCC3N(C(=O)CN3C(=O)c4ccccc4C3=O)c3ccccc32)cc1)Oc1ccccc1 (stereo unspecified)
The melting point of the first is higher: 220 to 222 °C for the first, 185 to 187 °C for the second.

First: COc1ccc(COc2c(C)c(C)c3c(c2C)C(c2ccc(N4CCN(C)CC4)cc2)C(C)(C)O3)cc1 (stereo unspecified)
Second: COc1ccc(-c2cnc(N3CCc4c([nH]c5ccccc45)C3C3Cc4ccccc4O3)nc2)cc1 (stereo unspecified)
The melting point of the first is lower: 121 to 122 °C for the first, 242 to 243 °C for the second.

First: CCc1cc(CC)n2ncc(Br)c2n1
Second: CCc1nc(CO)n(CC)c1Sc1cc(C#N)cc(C#N)c1
The melting point of the first is lower: 64 to 65 °C for the first, 141 to 143 °C for the second.

First: CCOCCOC(=O)C1=C(C)NC(COC(N)=O)=C(C(=O)OCC)C1c1cccc([N+](=O)[O-])c1 (stereo unspecified)
Second: O=C(Nc1cc(C(=O)O)cc(C(=O)O)c1)Oc1ccc([N+](=O)[O-])cc1
The melting point of the first is lower: 135 to 138 °C for the first, greater than 300 °C for the second.

First: O=C(O)c1ccnc(-c2ccc3c(c2)C(c2ccc(Cl)cc2Cl)CC3)c1 (stereo unspecified)
Second: O=C(c1ccccc1)c1cnn2c(-c3cccc(NC(=O)C4CC4)c3)ccnc12
The melting point of the first is lower: 205 to 206 °C for the first, 210 to 212 °C for the second.

First: CN(C)CCNC(=O)c1ccc(-c2ccccc2CSCCOc2ccccc2)cc1
Second: O=C1NC(=O)C(=Cc2ccc(OCCN(Cc3ccccc3)c3nc4ccccc4s3)cc2)S1
The melting point of the first is lower: 93 to 96 °C for the first, 185 to 188 °C for the second.

First: C#CCN(c1nc(C)n(-c2ccc(Cl)cc2Cl)n1)c1cc(C)ccc1OC
Second: NC(=O)c1nnn(Cc2ccc(Cl)c(C(=O)c3ccc(Cl)cc3)c2)c1N
The melting point of the first is lower: 116 °C for the first, 189 to 192 °C for the second.

First: NC(=O)c1cccc(OCCCl)c1
Second: N#CCNC(=O)c1cccc2ccccc12
The melting point of the first is lower: 125 to 126 °C for the first, 160 to 163 °C for the second.

Compared with `CC(C)(C)c1ccnc(-c2cc(C(C)(C)C)ccn2)c1`, `COc1cc(-c2nccn2N=Cc2ccc(N(C)C)cc2)cc(OC)c1OC` is higher in melting point: 159 to 160 °C for the first, 232 °C for the second.

Compared with `COC(=O)c1cccc2c(C=O)c[nH]c12`, `COC(=O)N(CC(=O)O)C(=O)c1cccc2c(C(F)(F)F)c(OC)ccc12` is lower in melting point: 153 to 154 °C for the first, 148 to 150 °C for the second.

First: Cc1cccc(CCc2c(C(C)C)nc(C(C)C)c(CO)c2-c2ccc(F)cc2)c1
Second: Cc1nc(-n2cc(-c3ccc(F)cc3)nn2)sc1C(=O)NCc1ccccc1
The melting point of the first is lower: 148 to 150 °C for the first, 203 to 205 °C for the second.

`Cc1cc(N(C)C)ccc1-c1c(O)c(=O)c1=O` and `CCn1cc(C(=O)O)c(=O)c2cc(Cl)c(N(C)C)cc21` cannot be ordered by melting point: greater than 114 °C for the first, 210 °C for the second.

Compared with `c1ccc2c(c1)nc(-c1ccc3c(c1)OCO3)n2CC1CCCCC1`, `ON=C(c1cccc2nc(N[C@@H]3CCc4ccccc43)ccc12)C1CC1` is higher in melting point: 100 to 102 °C for the first, 151 °C for the second.

First: C=CCOc1ccc(-c2c(OC(C)C)cccc2C(=O)O)c(OC)c1
Second: COc1ccc(N(CCCC(=O)O)C(=O)C(C)N(C(=O)c2ccco2)c2ccc(OC)cc2)cc1 (stereo unspecified)
The melting point of the first is lower: 101 to 103 °C for the first, 204 to 206 °C for the second.

First: COCCOc1nc(Cl)ncc1Cc1ccc(C)nc1
Second: CCCCCS(=O)(=O)NC(=O)CCCc1ccc(OCCOC)cc1Oc1ncc(C(F)(F)F)cc1Cl
The melting point of the first is lower: 50 to 52 °C for the first, 96 to 97 °C for the second.

Compared with `CCCSC(=S)N1Cc2[nH]c3ccccc3c2CC1CO` (stereo unspecified), `Cc1cc(C)nc(N(CSC(=S)N2CCCC2)C(=O)NS(=O)(=O)c2ccccc2Cl)n1` is higher in melting point: 130 to 131 °C for the first, 131 to 133 °C for the second.

First: COc1ccc(S(=O)(=O)Nc2cccnc2Nc2ccc(F)cc2)cc1
Second: COc1ccc(S(=O)(=O)Oc2cccc(OS(=O)(=O)c3ccc(OC)cc3)c2)cc1
The melting point of the first is higher: 196 to 197 °C for the first, 81 to 84 °C for the second.

First: COc1cc(F)ccc1-c1ccc(S(=O)(=O)N2c3ccccc3CC2C(=O)NCCOc2ccc(CC(=O)O)cc2)cc1 (stereo unspecified)
Second: COc1ccc(CNC(=O)C(=O)NCCc2ccccn2)cc1
The melting point of the first is lower: 102 to 110 °C for the first, 156 to 158 °C for the second.

First: COC(=O)c1c([N+](=O)[O-])cccc1S(=O)(=O)NC(C)(C)C
Second: CCOC(=O)/C=C1\CCOc2ccc([N+](=O)[O-])cc21
The melting point of the first is lower: 89 to 91 °C for the first, 135 °C for the second.

First: Cc1ncoc1C(O)c1ccco1 (stereo unspecified)
Second: CCOC(=O)c1cn(-c2cccnc2)nc1N
The melting point of the first is lower: 52 to 54 °C for the first, 140 to 141 °C for the second.

Compared with `CCOC(=O)/C(=N\OC(C)(CC)C(=O)OC(C)(C)C)c1csc(NC(c2ccccc2)(c2ccccc2)c2ccccc2)n1` (stereo unspecified), `COc1cccc(CCNC(=S)Nc2nc3ccccc3[nH]2)c1` is higher in melting point: 122 to 125 °C for the first, 161 to 167 °C for the second.

First: CC#CCOc1ccc(S(=O)(=O)C2(C(=O)O)CCN(Cc3ccc(C#N)cc3)CC2)cc1
Second: CC(C)c1cccc(C(C)C)c1NC(=O)NCC1(c2ccc(Cl)cc2)CCCC1
The melting point of the first is lower: 110 °C for the first, 189 to 192 °C for the second.

First: C=CCC1(C(C)(C)C(=O)OCC)C(=O)NC(=O)NC1=O
Second: CCCCOC(=O)[C@H]1CN(c2ccc(C3CCSCC3)c(F)c2)C(=O)O1
The melting point of the first is higher: 112 to 114 °C for the first, 98 to 100 °C for the second.

`NCc1sc(C(c2ccc(Cl)cc2)c2c(Cl)cc(-n3ncc(=O)[nH]c3=O)cc2Cl)nc1-c1ccccc1` (stereo unspecified) and `COc1cn(-c2ccc(-n3cc(F)c(F)c3)cc2OC(F)F)nc(-c2ccnn2-c2ccccc2)c1=O` cannot be ordered by melting point: 170 °C for the first, 168 to 170 °C for the second.

First: CS(=O)(=O)Nc1ccc2ncn3c(=O)c(C(=O)O)cnc3c2c1
Second: CN1C(=O)CC[C@]2(C)c3ccc(Sc4ccccc4)cc3CC[C@@H]12
The melting point of the first is higher: 319 to 322 °C for the first, 109 to 112 °C for the second.

First: CC1(C)SCNC1C(=O)O (stereo unspecified)
Second: CC(=O)C1=CCC2C3CCC4CC(O)CCC4(C)C3=CCC12C (stereo unspecified)
The melting point of the first is higher: 209 to 210 °C for the first, 188 to 190 °C for the second.

First: NS(=O)(=O)c1ccccc1N1CCCC1
Second: Nc1ccc(Sc2ccccc2)cc1C(F)(F)F
The melting point of the first is higher: 78 °C for the first, 63 to 66.5 °C for the second.

Going from `COc1cc(Cl)ccc1C(C)=O` to `Cc1ccc2c(c1)c1c(n2CCCl)C(=O)CCC1`, the melting point rises from 55 °C to 108 °C.

First: N#CC(=Cc1ccc[nH]1)c1cccnc1
Second: CCOc1cccnc1CSCCN=C(NC#N)SC
The melting point of the first is higher: 139 to 142 °C for the first, 98 to 99 °C for the second.

With `CCCCCCCCCCCCCCCCSCC(CN)NC(=O)OC` (stereo unspecified) the melting point was 49 to 50.5 °C.
